Laboratory results as given in ChEMBL document CHEMBL5728508, “Inhibitors of lysine specific demethylase-1” (2021).

Molecular target: Lysine-specific histone demethylase 1A (Homo sapiens, UniProt O60341)
Assay: In Vitro Enzyme Inhibition Assay: The enzymatic assay of LSD1 activity is based on Time Resolved-Fluorescence Resonance Energy Transfer (TR-FRET) detection. […] Plates were read by EnVision Multilabel Reader in TR-FRET mode (excitation at 320 nm, emission at 615 nm and 665 nm) after 1 hour incubation at room temperature.

With `CCn1c(-c2ccc(OC)cc2)c(-c2ccc(C#N)c(F)c2)cc(N2CCC(N)CC2)c1=O` the IC50 was < 100 nM.
